pIC50, pKi: −log10 of the molar value.
Experiments:
[1] = Inhibition of Saccharomyces cerevisiae alpha-glucosidase using p-nitrophenyl-alpha-D-glucopyranoside as substrate preincubated for 10 mins followed by substrate addition measured after 10 mins
[2] = tested on: Acetylcholinesterase; experiment: Inhibition of AChE (unknown origin) at 100 ug/ml using acetylthiocholine iodide as substrate incubated for 30 mins by Ellman's microplate assay; details: Homo sapiens
[3] = target: Cholinesterase (Equus caballus) (UniProt P81908); experiment: Inhibition of equine serum BChE at 100 ug/ml using S-butyrylthiocholine chloride as substrate incubated for 30 mins by Ellman's microplate assay
[4] = target: T1, Cholinesterase (Equus caballus, UniProt P81908); experiment: Inhibition of equine serum BChE using S-butyrylthiocholine chloride as substrate incubated for 30 mins by Ellman's microplate assay
[5] = target: T2, Acetylcholinesterase (Homo sapiens, UniProt P22303); experiment: Inhibition of AChE (unknown origin) using acetylthiocholine iodide as substrate incubated for 30 mins by Ellman's microplate assay
[6] = Selectivity index, ratio of IC50 for AChE (unknown origin) to IC50 for equine serum BChE
[7] = Selectivity index, ratio of IC50 for equine serum BChE to IC50 for AChE (unknown origin)
[8] = target: T2, Acetylcholinesterase; experiment: Mixed inhibition of AChE (unknown origin) using acetylthiocholine iodide as substrate incubated for 30 mins by Lineweaver-Burk plot analysis
[9] = target: T1, Cholinesterase; experiment: Mixed inhibition of equine serum BChE using S-butyrylthiocholine chloride as substrate incubated for 30 mins by Lineweaver-Burk plot analysis

T1 sequence (P81908 whole entry): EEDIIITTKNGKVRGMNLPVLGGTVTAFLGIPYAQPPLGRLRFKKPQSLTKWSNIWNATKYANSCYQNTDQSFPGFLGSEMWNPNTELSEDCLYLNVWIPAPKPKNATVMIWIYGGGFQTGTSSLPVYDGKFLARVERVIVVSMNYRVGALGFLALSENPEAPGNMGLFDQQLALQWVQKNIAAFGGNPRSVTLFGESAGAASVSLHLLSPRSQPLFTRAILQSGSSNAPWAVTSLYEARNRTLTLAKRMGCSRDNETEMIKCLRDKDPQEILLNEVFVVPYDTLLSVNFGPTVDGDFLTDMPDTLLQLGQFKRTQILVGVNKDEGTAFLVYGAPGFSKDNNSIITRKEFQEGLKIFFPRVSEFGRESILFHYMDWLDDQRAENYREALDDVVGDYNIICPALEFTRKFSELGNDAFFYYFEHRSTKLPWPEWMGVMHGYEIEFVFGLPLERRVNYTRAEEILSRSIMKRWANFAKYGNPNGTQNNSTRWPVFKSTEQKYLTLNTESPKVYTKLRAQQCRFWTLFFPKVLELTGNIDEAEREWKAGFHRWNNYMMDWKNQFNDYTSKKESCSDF
Cholinesterase (Equus caballus), sequence (P81908 whole entry): as above
T2 sequence (P22303 whole entry): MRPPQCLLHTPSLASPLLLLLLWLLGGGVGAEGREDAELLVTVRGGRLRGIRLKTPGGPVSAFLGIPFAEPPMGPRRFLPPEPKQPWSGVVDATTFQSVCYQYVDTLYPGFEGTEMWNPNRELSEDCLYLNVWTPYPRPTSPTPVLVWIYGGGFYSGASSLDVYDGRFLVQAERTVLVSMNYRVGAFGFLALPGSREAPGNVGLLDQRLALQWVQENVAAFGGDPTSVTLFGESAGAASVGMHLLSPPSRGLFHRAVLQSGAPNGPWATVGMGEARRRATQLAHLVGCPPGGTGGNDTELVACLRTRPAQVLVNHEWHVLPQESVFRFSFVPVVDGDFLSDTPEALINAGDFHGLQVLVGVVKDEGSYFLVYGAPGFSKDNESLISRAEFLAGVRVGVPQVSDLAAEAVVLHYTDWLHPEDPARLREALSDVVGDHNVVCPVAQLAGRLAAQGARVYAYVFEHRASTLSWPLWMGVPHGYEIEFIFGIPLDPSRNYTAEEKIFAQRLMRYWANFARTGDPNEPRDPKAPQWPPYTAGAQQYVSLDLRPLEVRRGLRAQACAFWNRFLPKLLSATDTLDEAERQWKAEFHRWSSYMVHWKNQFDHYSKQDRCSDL

O=C1CC(CCCCCCc2ccc(O)cc2)Oc2cccc(O)c21 (centres undefined)
pIC50 [1]: 3.45

O=C(O)CCCCCCCCc1ccc(O)cc1
inhibition [2]: 45.1%
inhibition [3]: 49%

O=C(CCCCCCCCc1ccc(O)c(O)c1)c1c(O)ccc(C(CCCCCCCCc2ccc(O)c(O)c2)c2c(O)cccc2O)c1O (centres undefined)
inhibition [2]: 75.4%
pIC50 [4]: 4.98
pIC50 [5]: 4.90
Ratio IC50 [6]: 1.2
Ratio IC50 [7]: 0.83
inhibition [3]: 81.1%

O=C(CCCCCCCCc1cc(O)c(O)cc1-c1ccc(O)c(C(=O)CCCCCCCCc2ccccc2)c1O)c1c(O)cccc1O
pIC50 [1]: 5.30

O=C(CCCCCCCCc1ccc(O)c(O)c1)c1c(O)cccc1O [MALABARICONE C]
inhibition [2]: 97.1%
pIC50 [4]: 5.55
pIC50 [5]: 5.71
pKi [8]: 5.23
Ratio IC50 [6]: 0.69
Ratio IC50 [7]: 1.44
pKi [9]: 4.94
inhibition [3]: 94.1%

O=C(CCCCCCCCc1ccc(O)cc1)c1c(O)cccc1O [MALABARICONE B]
inhibition [2]: 95.9%
pIC50 [4]: 5.75
pIC50 [5]: 5.74
pKi [8]: 5.36
Ratio IC50 [6]: 1.05
Ratio IC50 [7]: 0.96
pKi [9]: 6.25
inhibition [3]: 87.3%

O=C(CCCCCCCCc1ccc(O)cc1)c1c(O)cc(O)cc1O
inhibition [2]: 99.4%
pIC50 [4]: 5.18
pIC50 [5]: 5.19
Ratio IC50 [6]: 0.97
Ratio IC50 [7]: 1.03
inhibition [3]: 86.8%

O=C(CCCCCCCCc1ccc(O)c(O)c1)c1c(O)ccc(C(CCCCCCCCc2ccc(O)cc2)c2c(O)cccc2O)c1O (centres undefined)
inhibition [2]: 91.5%
pIC50 [4]: 4.90
pIC50 [5]: 4.51
Ratio IC50 [6]: 2.45
Ratio IC50 [7]: 0.41
inhibition [3]: 86.7%

O=C(CCCCCCCCc1ccccc1)c1c(O)cccc1O [MALABARICONE A]
inhibition [2]: 97.4%
pIC50 [4]: 4.41
pIC50 [5]: 5.88
Ratio IC50 [6]: 0.04
Ratio IC50 [7]: 33
inhibition [3]: 69.5%
